SMILES strings stand for the structures.

In one experiment the test system is IL-1β protein. As to the kind of experiment: ELISA, IL-1β protein after CCI injury. Format: in vivo, rat. Conditions: single-dose 30 mg kg^-1 i.p.; ipsilateral cortex, 1 day post-injury; P<0.01. The protocol: A previously described CCI injury procedure was utilized (Chen et al., 2003). Male Sprague-Dawley rats, which have body weight of 250-300 g, were anaesthetized with sodium pentobarbital (i.p.; 50 mgkg^−1; Rhone Merieux, Harlow, UK) and placed in a stereotaxic frame. A 5-mm craniotomy was performed over the left parietal cortex, centered on the coronal suture and 3 mm lateral to the sagittal suture. Considerable care was taken to avoid injury to the underlying dura. Injury was made using a pneumatic piston with a rounded metal tip (2.5 mm diameter) that was angled 22.5° C. to the vertical so that the tip was perpendicular with the brain surface at the centre of the craniotomy. A velocity of 4 ms^−1 and a deformation depth 2 mm below the dura were used. […] Body temperature was monitored throughout the surgery by a rectal probe; temperature was maintained at 37.0±0.5° C. using a heated pad. […]
Single-dose baicalein (30 mg kg^−1) or a corresponding volume of vehicle was administered i.p. immediately following injury. […] Testing after injury was as follows: (1) real-time quantitative RT-PCR analysis for TNF-α, IL-1β and IL-6 mRNA expression at 6 h post-injury (n=7 for each group); (2) FluoroJade B (FJB) staining, TNF-α, IL-1β and IL-6 immunohistochemistry, as well as ELISA at 24 h post-injury to assess degenerative neurons and to determine cytokine expression (n=7 for each group). […]

The subject of experiment [1] is rats with controlled cortical impact (CCI) injury. As to the kind of experiment: Cortical contusion volume, cresyl violet staining. It counts as in vivo, rat. The protocol: A previously described CCI injury procedure was utilized (Chen et al., 2003). Male Sprague-Dawley rats, which have body weight of 250-300 g, were anaesthetized with sodium pentobarbital (i.p.; 50 mgkg^−1; Rhone Merieux, Harlow, UK) and placed in a stereotaxic frame. A 5-mm craniotomy was performed over the left parietal cortex, centered on the coronal suture and 3 mm lateral to the sagittal suture. Considerable care was taken to avoid injury to the underlying dura. Injury was made using a pneumatic piston with a rounded metal tip (2.5 mm diameter) that was angled 22.5° C. to the vertical so that the tip was perpendicular with the brain surface at the centre of the craniotomy. A velocity of 4 ms^−1 and a deformation depth 2 mm below the dura were used. The bone flap was immediately replaced and sealed, and the scalp was closed with sutures. Body temperature was monitored throughout the surgery by a rectal probe; temperature was maintained at 37.0±0.5° C. using a heated pad. Rats were placed in a heated cage to maintain body temperature, while recovering from anaesthesia. Baicalein (30 mg kg^−1) dissolved in 10% dimethyl sulphoxide (0.25-0.3 mL) or a corresponding volume of vehicle (10% dimethyl sulphoxide) was administered i.p. immediately following injury or daily for 4 days (immediately, 25, 49 and 73 h) after injury. Behaviour testing using the rotarod, tactile adhesive removal, mNSS and beam walk tests was performed at 28 hours as well as 4, 7, 14, 21 and 28 days post-injury. At 14 and 28 days, the animals were killed, perfused intravascularly and their brains were processed with cresyl violet staining to assess contusion volume (n=8 for each group). […] Following with terminal anaesthesia, rats were killed by transcardial perfusion first with phosphate-buffered saline (PBS) and then with 4% paraformaldehyde and their tissues were processed on day 1 (for FJB staining and cytokine immunohistochemistry), day 14 (for cresyl violet histology) and day 28 (for cresyl violet histology), post-injury. All solutions were maintained at pH 7.4 and 4° C. Brains were removed and post-fixed in 4% paraformaldehyde overnight and transferred to PBS containing 30% sucrose and 0.1% sodium azide, manufactured by Sigma Chemical Co. located at St Louis, Mo., USA, for cryoprotection. Coronal sections were cut in a cryostat at […] from the level of the olfactory bulbs to the visual cortex. Every 50th slice was used for cresyl violet histology, FJB staining or immunohistochemistry. The distance between similarly stained sections within each group was thus […], with approximately 20 sections per group. […] To measure contusion volumes, cresyl violet-stained sections were digitized and analyzed using a ×1.5 objective and computer image analysis system (Scion Image, Beta Release 4.0.2; Scion Corp., Frederick, Md., USA). […] Contusion area was calculated from all images of cresyl violet-stained sections that contained contused brain; volume measurement was computed by summation of areas multiplied by interslice distance (500 μm).

For the compound `O=c1cc(-c2ccccc2)oc2cc(O)c(O)c(O)c12` [baicalein], the “IL-1β protein concentration, % of concentration in vehicle-treated rats” value with IL-1β protein is on record as 42%. Further, the “contusion volume, single-dose versus multiple-dose groups” value in experiment [1] (30 mg kg^-1 i.p., days 14 and 28, P>0.05) was “no significant difference”. Moreover, the “reduction of contusion volume versus vehicle” value in experiment [1] (multiple doses 30 mg kg^-1 i.p. daily for 4 days, 14 days post-injury) came to 42%; in experiment [1] (multiple doses 30 mg kg^-1 i.p. daily for 4 days, 28 days post-injury), 42%; in experiment [1] (single dose 30 mg kg^-1 i.p., 14 days post-injury), 32%; in experiment [1] (single dose 30 mg kg^-1 i.p., 28 days post-injury), 34%.

The record behind these values is patent US20100222421A1, “Usage of Baicalein in the Preparation of a Pharmaceutical Composition for the Treatment of Traumatic Brain Injury” (National Defense Medical Center, priority 2009, published 2010).
